Measurements as given in patent US20260226069A1, “GCN2 AND PERK KINASE MODULATORS AND METHODS OF USE THEREOF” (Deciphera Pharmaceuticals, LLC, priority 2023, published 2026).

Legend:
GCN2 kinase = target: T1, GCN2 kinase (Homo sapiens, UniProt Q9P2K8); test: Biochemical assay for GCN2 (TR-FRET kinase activity assay); conditions: 2 nM GCN2, 1 mM ATP, 3-hour incubation
T1 construct: G556E with a; purchased Carna Biosciences
Method: Biochemical assay for GCN2
Activity of GCN2 kinase was determined using a TR-FRET kinase activity assay (e.g., Analytical Biochemistry, 2006, 356, 108-116). Assays were conducted in 384-well plates (13 μL assay volume) using 2 nM GCN2 (Carna Biosciences), 130 nM GFP-EIf2α (Invitrogen), 0.2 mg/mL E. coli tRNA (sigma) and 1 mM ATP in kinase buffer (Invitrogen). Inhibition of GCN2 was measured by adding serial diluted test compound (final assay concentration of 0.5% DMSO) followed by a 3-hour incubation. Tb-peIF2α (pSer52) antibody (Invitrogen) (2 nM final assay concentration) in kinase buffer containing EDTA (final assay concentration of 20 mM) was added. After a 60 min incubation at room temperature, TR-FRET was monitored using an excitation wavelength of 340 nm and emission wavelengths of 490 nm and 520 nm. The emission ratio (520/490) at each compound concentration of was converted to percent inhibition using controls (i.e., reaction with no test compound and reaction with a known inhibitor) and IC50 values were calculated by fitting a four-parameter sigmoidal curve to the data using Prism (GraphPad software).

[1] = system: ASNase treated CCRF-CEM cells; test: CCRF-CEM ASNase cell proliferation assay, phenotypic assay for cellular inhibition of GCN2; assay type: cell-based; conditions: Homo sapiens, 1 mU/mL ASNase, 72 h, resazurin
Method: CCRF-CEM ASNase Cell Proliferation Assay, a Phenotypic Assay for Cellular Inhibition of GCN2.
CCRF-CEM leukemia cells (catalog #CCL-116) were obtained from the American Type Culture Collect (ATTC, Manassas, VA). Cells were grown in RPMI-1640 medium supplemented with 10% heat-inactivated fetal bovine serum (Invitrogen, Carlsbad, CA) and 1% Penicillin/Streptomycin/L-Glutamine at 37° C., 5% CO2, and 95% humidity. Cells were expanded until reaching one million cells per mL at which time they are subcultured or harvested for assay use. Ten thousand cells per well in 200 μL RPMI-1640 supplemented with 10% heat-inactivated fetal bovine serum and 1% Penicillin/Streptomycin were dispensed into a 96-well black clear bottom plate. A serial dilution of test compound and 1 mU/mL ASNase was added in triplicate and plates were incubated for 72 h at 37° C., 5% CO2, and 95% humidity. At the end of the incubation, 40 μL of a […] solution of resazurin (Sigma, St. Louis, MO) in PBS was added to each well of the plate and plates were incubated for an additional 6 h at 37° C., 5% CO2, and 95% humidity. Plates were read on a Synergy2 or equivalent reader (Biotek, Winooski VT) using an excitation of 540 nm and an emission of 600 nm. Data was analyzed using GraphPad Prism software (GraphPad, San Diego, CA) to calculate IC50 values.

[2] = system: ATF4 in Thapsigargin stimulated CCRF-CEM cells; test: CCRF-CEM TG ATF4 ELISA, phenotypic assay for cellular inhibition of PERK preactivated by thapsigargin; assay type: cell-based; conditions: Homo sapiens, 3 h, compound three hours then 1 μM thapsigargin for an additional hour
Method: CCRF-CEM TG ATF4 ELISA, a Phenotypic Assay for Cellular Inhibition of PERK Preactivated by Thapsigargin (TG)
CCRF-CEM leukemia cells (catalog #CCL-116) were obtained from the American Type Culture Collection (ATTC, Manassas, VA). Briefly, cells were grown in RPMI-1640 medium supplemented with 10% heat-inactivated fetal bovine serum (Invitrogen, Carlsbad, CA) and 1% Penicillin/Streptomycin/L-Glutamine at 37° C., 5% CO2, and 95% humidity. Cells were expanded until reaching one million cells per mL at which time they were subcultured or harvested for assay use. One million five hundred thousand cells per well in 1 mL complete growth medium were dispensed into 12-well plates and incubated overnight. A serial dilution of test compound was added and cells were incubated at 37° C., 5% CO2, and 95% for three hours, then 1 μM thapsigargin was added and cells were incubated for an additional hour at 37° C., 5% CO2, and 95%. Cells were lysed then ATF4 levels were measured using an ELISA assay (Proteintech, Rosemont, IL). Absorbance was measured at 450 nm and 544 nM using a Synergy2 or equivalent reader (Biotek, Winooski VT). Data was analyzed using PRISM software (Graphpad, San Diego, CA) to calculate IC50 values.

PERK kinase = target: T2, PERK kinase (Homo sapiens, UniProt Q9NZJ5, A704S); test: Biochemical assay for PERK (coupled pyruvate kinase/lactate dehydrogenase assay); conditions: 10 nM PERK, 1 mM ATP, reaction rate 2-3 h time frame, 30° C.
T2 construct: GST (with thrombin site LVPRGS); purchased Beryllium
T2 sequence (Q9NZJ5 with tags, fused parts or gaps A704S): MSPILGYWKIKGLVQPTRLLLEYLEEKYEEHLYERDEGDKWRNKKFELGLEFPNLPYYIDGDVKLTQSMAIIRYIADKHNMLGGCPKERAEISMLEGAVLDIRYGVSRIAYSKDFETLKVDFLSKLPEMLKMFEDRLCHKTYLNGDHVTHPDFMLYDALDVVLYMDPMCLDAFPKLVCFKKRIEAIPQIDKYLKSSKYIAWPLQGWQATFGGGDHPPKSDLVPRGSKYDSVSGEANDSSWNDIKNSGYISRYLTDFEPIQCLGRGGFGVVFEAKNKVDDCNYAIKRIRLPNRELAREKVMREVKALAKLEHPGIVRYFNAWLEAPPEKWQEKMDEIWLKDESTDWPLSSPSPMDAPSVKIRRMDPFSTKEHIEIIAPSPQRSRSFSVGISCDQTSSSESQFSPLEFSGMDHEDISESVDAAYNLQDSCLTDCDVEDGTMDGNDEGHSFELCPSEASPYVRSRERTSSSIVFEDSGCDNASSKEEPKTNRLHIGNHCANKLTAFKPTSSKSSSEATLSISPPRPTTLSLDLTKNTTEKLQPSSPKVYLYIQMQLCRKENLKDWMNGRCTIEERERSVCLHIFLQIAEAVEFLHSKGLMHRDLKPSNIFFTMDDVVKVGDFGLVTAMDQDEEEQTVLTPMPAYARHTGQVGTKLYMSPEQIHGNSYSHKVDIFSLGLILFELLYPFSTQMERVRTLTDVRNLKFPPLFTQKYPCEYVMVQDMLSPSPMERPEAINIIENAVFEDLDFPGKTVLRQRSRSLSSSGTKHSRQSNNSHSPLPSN
Method: Biochemical Assay for PERK
Activity of PERK kinase was determined spectroscopically using a coupled pyruvate kinase/lactate dehydrogenase assay that continuously monitors the ATP hydrolysis-dependent oxidation of NADH (Science, 2000, 289, 1938-1942). Assays were conducted in 384-well plates (100 μL final volume) using 10 nM PERK (from Beryllium), 0.25 mg/mL Myelin Basic Protein substrate, 1.5 units pyruvate kinase, 2.1 units lactate dehydrogenase, 1 mM phosphoenol pyruvate, 0.28 mM NADH and 1 mM ATP in assay buffer (100 mM Tris, pH 7.5, 15 mM MgCl2, 0.5 mM DTT, 0.004% (w/v) BSA, and 0.004% Triton X-100). Inhibition of PERK was measured by adding serial diluted test compound (final assay concentration of 1% DMSO). A decrease in absorption at 340 nm was monitored continuously for 6 hours at 30° C. on a multi-mode microplate reader (BioTek). The reaction rate was calculated using the 2-3 h time frame. The reaction rate at each concentration of compound was converted to percent inhibition using controls (i.e., reaction with no test compound and reaction with a known inhibitor) and IC50 values were calculated using software routines in Prism (GraphPad software).

[3] = system: ATF4 in H929 Multiple Myeloma cells; test: H929 ATF4 ELISA assay; assay type: cell-based; conditions: four hours, fold stimulation of cellular ATF4 relative to vehicle treated control
Method: H929 multiple myeloma cells (catalog #CRL-9068) were obtained from the American Type Culture Collection (ATTC, Manassas, VA). Briefly, cells were grown in RPMI-1640 medium supplemented with 20% heat-inactivated fetal bovine serum (catalog #A3840002, ThermoFisher Scientific, Waltham, MA), 1% Penicillin/Streptomycin/L-Glutamine (catalog #10378016, ThermoFisher Scientific, Waltham, MA), and 0.05 mM 2-mercaptoethanol (catalog #21985-023, ThermoFisher Scientific, Waltham, MA) at 37° C., 5% CO2, and 95% humidity. Cells were expanded until reaching one million five hundred thousand cells per mL at which time they were sub-cultured or harvested for assay use. One million five hundred thousand cells per well in 1 mL complete growth medium were dispensed into 12-well plates and incubated overnight. A serial dilution of test compound was added, and cells were incubated at 37° C., 5% CO2, and 95% for four hours. Cells were lysed then ATF4 levels were measured using an ELISA assay (Proteintech, Rosemont, IL). Absorbance is measured at 450 nm and 544 nM using a Synergy2 or equivalent reader (Biotek, Winooski VT). Data were analyzed using PRISM software (Graphpad, San Diego, CA) to calculate fold stimulation of cellular ATF4 relative to vehicle treated control.

SMILES | IC50 (GCN2 kinase) [nM] | IC50 [1] [nM] | IC50 [2] [nM] | IC50 (PERK kinase) [nM] | H929 NS ATF4 ELISA [3]
Nc1nccn2c(-c3cn[nH]c3)nc(-c3cccc(NS(=O)(=O)c4cc(Cl)cc(CO)c4Cl)c3F)c12 [Example 19] | ≤ 100 | 100 to 500 | 500 to 1000 | ≤ 100 | ++ (an ATF4 stim greater than 5-fold and less than or equal to 10-fold)
CC(=O)OCc1cc(Cl)cc(S(=O)(=O)Nc2cccc(-c3nc(C)n4ccnc(N)c34)c2F)c1Cl [Example 1, 3-(N-(3-(8-amino-3-methylimidazo[1,5-a]pyrazin-1-yl)-2-fluorophenyl)sulfamoyl)-2,5-dichlorobenzyl acetate] | 1000 to 10000 | 500 to 1000 | 500 to 1000 | 100 to 500 | ++++ (an ATF4 stim greater than 20-fold)
